Experiment [1] has as its system HIV-1NL4-3. The experiment is described as follows: HIV-1NL4-3 infection of C8166 cells (syncytia formation, p24 ELISA). Set-up: key to Syncytium formation: ++: number of syncytia present in the well were similar to that in control untreated well (35 to 40 syncitia per well); −: total absence of syncitia in the well; ±: presence of 1 to 3 syncitia in the well. To be noted: for Syncytium formation / P24: C8166 cells; for inhibition of syncytium formation and p24 production of HIV-infected cells: 5 μM; for HIV inhibition characteristics: Table 3, C8166 cells. The format is cell-based. As for the experimental part: C8188 cells were infected with HIV to establish a baseline control. Similar C8188 cells were pretreated the invented MBPCs and then subjected to HIV to determine inhibition rates. The results are illustrated in FIGS. 1A, 1B and 2.
Samples of 3×10^5 C8166 cells were placed in 96-well plates in a volume of 100 μl of culture medium containing various concentrations of peptide. After a one hour treatment at 37° C., 100 μl of viral solution of HIV-1NL4-3 were added. The cells were exposed to the virus of one hour at 37° C. at a multiplicity of infection of 1,000 TCID50 per ml. After through washing, cells were replaced in 1 ml of R10 with the treatment in 24-well plates and cultured in a 37° C. incubator. C8166 culture medium was replaced at day-4 post-infection. During this assay, treatment with peptide was permanent (before, during and after infection). Assays on C8166 cells have been performed at least twice and in duplicate. Toxicity was evaluated by daily cell count and trypan-blue exclusion assay. Infection of C8166 T-Cells with HIV-1NL4-3 was assessed by virus-induced cytopathic effect (syncytia formation) and by quantification of p24 viral protein in the culture supernatants. Measurements of HIV-1 p24^gag concentrations in the culture supernatants were achieved by ELISA, with a detection cut-off of 5 pg/ml (p24 HIV kit, NEN Dupont, Belgium; Quanti-Kine software, RILAB, Genova, Italy).
(In an ELISA, binding on a coated surface is turned into a signal by an enzyme label.)

In another experiment the test system is HIV-1 W5A2A9 isolate. The experiment is described as follows: Inhibition of clinical isolates infectivity. Format: cell-based. Particulars: non-diluted virus solution. From the text:
The gp41-derived MBPCs of the invention have been tested in vitro for their ability to inhibit HIV-induced syncytium formation, and infection of human lymphocytes by both HIV-1 and HIV-2 viruses (several laboratory strains including LAV-2B, an HIV-2 virus able to infect some CD4^−/GalCer^− cells, as well as clinical isolates such as JRCSF, P16/B6 and P16/C9). […] Similar results were obtained with other HIV strains and clinical isolates tested so far.
Example shown is the HIV-1 W5A2A9 isolate. N.B. Experiments were performed with non-diluted virus solution.

For the next experiment, the system named is H × 10 (HIV-1) strain. As for the experimental part:
SPC3 is (GPGRAF)8-(K)4-(K)2-K-βA-OH as disclosed in WO95/07929. D4 and D5 refer to days 4 and 5 of the experiment. OD stands for Optical Density. N.B. Experiments were performed with non diluted virus solution.

The subject of experiment [2] is HIV-1NL4-3. The experiment can be described thus: HIV-1NL4-3 infection of human PBLs/PBMCs (p24 ELISA). Format: cell-based. On the procedure: Human peripheral blood lymphocytes (PBLs) obtained from healthy HIV-seronegative donor (Etablissement Francais du Sang, Marseille, France) were isolated by ficoll-Hypaque gradient centrifugation. Cells were cultured in R10 medium supplemented with 20 units/ml of interleukin-2 (IL-2, Proleukin, Chiron, The Netherlands). R10 medium consists of RPMI 1640 supplemented with 2 mM ultraglutamine (BioWhittaker, Vervires, Belgium), penicillin (100 units/ml), streptomycin (100 μg/ml), and 10% heat-inactivated fetal calf serum (BioWhittaker). Cells were first stimulated with phytohemaggiutinin (20 μg/ml)-supplemented R10 (PHA P, DIFCO, Detroit, Mich., USA) for three days. Then, the medium was replaced with R10 supplemented with IL2 (20 units/ml), and subsequently cultures and experiments were carried out in this medium in a 37° C. humidified incubator with 5% CO2.
Samples of 10^6 human PBLs were placed in 96-well plates in 100 μl of R10 containing various concentrations of peptide. After one hour treatment of 37° C., 100 μl of viral solution of HIV-1NL4-3 were added. The cells were exposed to the virus for one hour at 37° C. flushed with 5% CO2. The PBL culture medium was replaced every 3-4 days. The cell viability was assessed by cell counts and trypan-blue exclusion assay. The viral production in the culture supernatant was quantified by p24 ELISA test, as described supra. […]

For another experiment, the system named is HIV-1 and HIV-2 viruses. The experiment is described as follows: In vitro inhibition of HIV-induced syncytium formation and infection of human lymphocytes. Format: cell-based. To be noted: HIV-1 and HIV-2 laboratory strains and clinical isolates.
[3] abbreviates: Molarity 1 × 10^−5, day 4, non diluted virus solution.
Where [4] appears, read: Molarity 1 × 10^−6, day 4, non diluted virus solution.
[5] abbreviates: Molarity 5 × 10^−5, day 4, non diluted virus solution.
Setting [6] is: Molarity 5 × 10^−5, day 5, non diluted virus solution.
Setting [7] is: Molarity 5 × 10^−6, day 4, non diluted virus solution.

Where two headings read alike, the source gives them in different places.

Turning to (D RQGYSPL)2-K-βA [Peptide 9], the Syncytium formation entry in the experiment on HIV-1NL4-3 [1] (peptide 1 μm) and in the experiment on HIV-1NL4-3 [1] (peptide 10 μm) was “++ (number of syncytia present in the well were similar to that in control untreated well (35 to 40 syncitia per well))” throughout.

With (LPSYGQR)8-K4-K2—K-βA, the “inhibition of syncytium formation and p24 production of HIV-infected cells” value in the experiment on HIV-1NL4-3 [1] was 100%.

Turning to (GPGRAF)8-(K)4-(K)2-K-βA-OH [SPC3], the “Inhibition (%) of clinical isolates infectivity” value in the experiment on HIV-1 W5A2A9 isolate ([conc] 1 × 10^−5, HIV-1 W5A2A9 isolate) is reported as 85.7%; with HIV-1 W5A2A9 isolate ([conc] 1 × 10^−6, HIV-1 W5A2A9 isolate), 28.6%; in the experiment with HIV-1 W5A2A9 isolate ([conc] 1 × 10^−7, HIV-1 W5A2A9 isolate), 0%; in the experiment on HIV-1 W5A2A9 isolate ([conc] 5 × 10^−6, HIV-1 W5A2A9 isolate), 50.0%; with HIV-1 W5A2A9 isolate ([conc] 5 × 10^−7, HIV-1 W5A2A9 isolate), 0%; with HIV-1 W5A2A9 isolate ([conc] 5 × 10^−8, HIV-1 W5A2A9 isolate), 0%. Moreover, the Inhibition (in general, the relative decrease from the control value, in per cent) with H × 10 (HIV-1) strain (setting [3]) came out at 89.13%; in the experiment with H × 10 (HIV-1) strain (setting [4]), 0%; in the experiment with H × 10 (HIV-1) strain (setting [5]) it was 98.89%; in the experiment on H × 10 (HIV-1) strain (setting [6]) it was 98.47%; in the experiment with H × 10 (HIV-1) strain (setting [7]), 50.78%. For the same molecule, the p24 with H × 10 (HIV-1) strain (setting [3]) worked out at 0.4865 ng/mL; in the experiment on H × 10 (HIV-1) strain (setting [4]) it was 4.786 ng/mL; in the experiment on H × 10 (HIV-1) strain (setting [5]), 0.05556 ng/mL; in the experiment on H × 10 (HIV-1) strain (setting [6]), 0.09351 ng/mL; in the experiment on H × 10 (HIV-1) strain (setting [7]), 2.216 ng/mL.

On to (RQGY)2-K-βA [Peptide 3], for which the Syncytium formation result in the experiment on HIV-1NL4-3 [1] (peptide 1 μm) and in the experiment on HIV-1NL4-3 [1] (peptide 10 μm) was “± (presence of 1 to 3 syncitia in the well)” each time.

With (SPL)2-K-βA [Peptide 8], the Syncytium formation result with HIV-1NL4-3 [1] (peptide 1 μm) is recorded as “++ (number of syncytia present in the well were similar to that in control untreated well (35 to 40 syncitia per well))”; with HIV-1NL4-3 [1] (peptide 10 μm) it was “± (presence of 1 to 3 syncitia in the well)”.

With (QGYSPL)2-K-βA [Peptide 5], the Syncytium formation entry is listed as “± (presence of 1 to 3 syncitia in the well)” with HIV-1NL4-3 [1] (peptide 1 μm) and “−” with HIV-1NL4-3 [1] (peptide 10 μm).

On to (KQGYSPL)2-K-βA [Peptide 10], for which the Syncytium formation entry in the experiment with HIV-1NL4-3 [1] (peptide 1 μm) and in the experiment with HIV-1NL4-3 [1] (peptide 10 μm) was “++ (number of syncytia present in the well were similar to that in control untreated well (35 to 40 syncitia per well))” throughout.

(RQGYSP)2-K-βA [Peptide 1]: the Syncytium formation entry with HIV-1NL4-3 [1] (peptide 10 μm) is “−”.

In the case of (YSPL)2-K-βA [Peptide 7], the Syncytium formation result with HIV-1NL4-3 [1] (peptide 1 μm) and in the experiment with HIV-1NL4-3 [1] (peptide 10 μm) was “± (presence of 1 to 3 syncitia in the well)” each time.

On to (RQGYSPL)2-K-βA [Peptide 11], for which the “inhibition of HIV-1NL403 infected PBMCs” value with HIV-1NL4-3 [2] (0.1 μM, FIG. 2) is listed as 100%. Also, the “viral activity relative to controls” value in the experiment with HIV-1NL4-3 [1] (0.1 micro-molar (μm), FIG. 1, C8166 cells) is recorded as “one tenth that seen in controls”. Besides, the viral activity result in the experiment with HIV-1NL4-3 [1] (5 μm, FIG. 1, C8166 cells) is “virtually no activity”; in the experiment on HIV-1NL4-3 [1] (10 μm, FIG. 1, C8166 cells), “no viral activity”. For the same molecule, in the experiment with HIV-1NL4-3 [1] (HIV-1NL403 infected C8166 cells, FIG. 1), the “inhibition of syncytium formation and p24 production” value is reported as “marked inhibition”. The HIV inhibition characteristics result in the experiment with HIV-1NL4-3 [1] is listed as “superior HIV inhibition characteristics”. In addition, the P24 with HIV-1NL4-3 [1] (peptide 1 μm) and with HIV-1NL4-3 [1] (peptide 10 μm) was 0 pg/mL each time. Moreover, the Syncytium formation result with HIV-1NL4-3 [1] (peptide 1 μm) and in the experiment on HIV-1NL4-3 [1] (peptide 10 μm) was “−” each time.

(D-LPSYGQR)8-K4-K2-K-βA: in the experiment on HIV-1NL4-3 [2] (at a concentration of 1 μM), the “inhibition of HIV infection of PBMCs” value is listed as “totally inhibit”. The “inhibition of HIV infection of C8166 cells” value in the experiment on HIV-1NL4-3 [1] (at a concentration of 1 μM) is given as “totally inhibit”.

Regarding “(RQGY)8-(K)4-(K)2-K-βA-OH [(RQGY)8-K4-K2-K-βA]”, the “inhibition of syncytium formation and p24 production of HIV-infected cells” value in the experiment with HIV-1NL4-3 [1] worked out at 100%.

RQGYSPL [monomeric RQGYSPL]: the “antiviral properties (HIV-induced syncytium formation, infection of human lymphocytes)” value with HIV-1 and HIV-2 viruses was “inactive”.

Consider (RQGYS)2-K-βA-OH [Peptide 2], for which the HIV inhibition characteristics entry in the experiment with HIV-1NL4-3 [1] was “superior HIV inhibition characteristics”. In the experiment on HIV-1NL4-3 [1] (peptide 1 μm), the P24 came to 0 pg/mL and the Syncytium formation entry is given as “−”. In the experiment with HIV-1NL4-3 [1] (peptide 10 μm), the P24 was 0 pg/mL and the Syncytium formation result is recorded as “−”.

Take (RQG)2-K-βA [Peptide 4]: the results for the Syncytium formation entry with HIV-1NL4-3 [1] (peptide 1 μm) and with HIV-1NL4-3 [1] (peptide 10 μm) were “± (presence of 1 to 3 syncitia in the well)” and “−”, respectively.

As for (AcRQGYSPL)2-K-βA [Peptide 12], the Syncytium formation entry with HIV-1NL4-3 [1] (peptide 1 μm) and in the experiment on HIV-1NL4-3 [1] (peptide 10 μm) was “++ (number of syncytia present in the well were similar to that in control untreated well (35 to 40 syncitia per well))” in each case.

Turning to (GYSPL)2-K-βA [Peptide 6], the Syncytium formation result in the experiment on HIV-1NL4-3 [1] (peptide 1 μm) and in the experiment with HIV-1NL4-3 [1] (peptide 10 μm) was “± (presence of 1 to 3 syncitia in the well)” in each case.

In the case of `Cc1cn([C@H]2C[C@H](N=[N+]=[N-])[C@@H](CO)O2)c(=O)[nH]c1=O` [AZT, reference compound], in the experiment on HIV-1NL4-3 [1] (peptide 1 μm), the P24 was 0 pg/mL and the Syncytium formation entry was “−”. In addition, in the experiment with HIV-1NL4-3 [1] (peptide 10 μm), the P24 stood at 0 pg/mL and the Syncytium formation entry is recorded as “−”.

(Values after patent US7285621B2, “Multiple branch peptide construction” (Ambrilia Biopharma, priority 1999, dated 2007).)
